Where two headings read alike, the source gives them in different places.
Assays:
[1] = biological target: T1, Class B β-lactamase (B. cereus enzyme) (Bacillus cereus, UniProt P04190); test: Ki determination, initial rate of hydrolysis of reporter substrate cephalosporin C; format: biochemical
T1 construct: from a range of bacteria, including: Xanthomonas maltophilia, Bacillus cereus; endogenous in cells; host or cells: Bacillus cereus (enzyme purified from the bacterium)
Procedure: (§1) Class B β-lactamases were purified according to published^4 or standard procedures from a range of bacteria, including: Xanthomonas maltophilia, Bacillus cereus, Pseudomonas aeruginosa and Aeromonas hydrophila.
(§2) Assays for inhibition were also carried out according to published procedures^4. Kinetic experiments were typically carried out at 30° C. with 30 mM sodium cacodylate buffer, pH 6.5, containing 0.1 mM ZnCl2.
(§3) The Ki (inhibition constant) values were determined by analysing the initial rate of hydrolysis at different inhibitor concentrations using the following reporter substrates: 30 μm nitrocefin (X. maltophilia enzyme), 200 μM imipenem (A. hydrophila), or 1 mM cephalosporin C (B. cereus and P. aeruginosa enzymes). Data analysis was carried out according to standard kinetic procedures [Felici, A. et al., Biochem. J., 291, 151-155 (1993) and references therein].

[2] = biological target: T2, Class B β-lactamase (X. maltophilia enzyme) (Stenotrophomonas maltophilia, UniProt P52700); test: Ki determination, initial rate of hydrolysis of reporter substrate nitrocefin; format: biochemical, Xanthomonas maltophilia
T2 construct: standard procedures from a range of bacteria, including: Xanthomonas maltophilia; endogenous in cells; host or cells: Xanthomonas maltophilia (enzyme purified from the bacterium)
Procedure: as §1, §2, §3

[3] = biological target: T3, Class B β-lactamase (P. aeruginosa enzyme) (Pseudomonas aeruginosa, UniProt Q79MP6); test: Ki determination, initial rate of hydrolysis of reporter substrate cephalosporin C; format: biochemical; details: competitive inhibition; 1 mM cephalosporin C; 30° C., pH 6.5, 0.1 mM ZnCl2; read-out: Ki (inhibition constant)
T3 construct: Bacillus cereus, Pseudomonas aeruginosa and Aeromonas hydrophila; endogenous in cells; host or cells: Pseudomonas aeruginosa (enzyme purified from the bacterium)
Procedure: as §1, §2, §3

[4] = biological target: T4, Class B β-lactamase (A. hydrophila enzyme) (Aeromonas hydrophila, UniProt P26918); test: Inhibition/inactivation kinetics, reporter substrate imipenem; format: biochemical; details: for mode of inhibition of the A. hydrophila enzyme: further kinetic analyses, no reactivation was observed; for Ki: inactivation kinetics, 200 μM imipenem, 30° C., pH 6.5, 0.1 mM ZnCl2, read-out: K = apparent binding constant between the enzyme and substrate
T4 construct: Bacillus cereus, Pseudomonas aeruginosa and Aeromonas hydrophila; endogenous in cells; host or cells: Aeromonas hydrophila (enzyme purified from the bacterium)
Procedure: as §1, §2, §3
Compounds 3, 4, 5, 6, 7 and 9 were also shown to be inhibitors of the A. hydrophila enzyme. […] The following kinetic parameters were obtained, where K=apparent binding constant between the enzyme and substrate and k+2 =apparent rate constant for inactivation as in the following scheme: [formula] Kinetic data for compound 3: K=6 μM, k+2 =4.3×10^-2 s^-1

[5] = competitive inhibition, 1 mM cephalosporin C, 30° C., pH 6.5, 0.1 mM ZnCl2, read-out: Ki (inhibition constant)
[6] = read-out: Ki (inhibition constant), competitive inhibition, 1 mM cephalosporin C, 30° C., pH 6.5, 0.1 mM ZnCl2

T4 sequence (P26918 28-254): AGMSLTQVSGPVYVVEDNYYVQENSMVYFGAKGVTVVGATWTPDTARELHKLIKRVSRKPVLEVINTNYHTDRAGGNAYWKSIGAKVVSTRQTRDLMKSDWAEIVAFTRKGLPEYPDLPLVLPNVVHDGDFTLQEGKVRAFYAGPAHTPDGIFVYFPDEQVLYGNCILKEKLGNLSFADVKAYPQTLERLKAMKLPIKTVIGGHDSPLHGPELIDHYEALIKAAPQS
T2 sequence (P52700 34-290): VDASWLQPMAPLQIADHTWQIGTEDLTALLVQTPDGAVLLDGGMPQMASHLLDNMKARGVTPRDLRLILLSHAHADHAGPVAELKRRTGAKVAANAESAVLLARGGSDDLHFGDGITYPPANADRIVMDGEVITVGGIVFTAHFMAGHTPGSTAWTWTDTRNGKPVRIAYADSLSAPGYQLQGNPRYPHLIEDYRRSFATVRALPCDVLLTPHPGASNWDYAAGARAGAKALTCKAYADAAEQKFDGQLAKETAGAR
T1 sequence (P04190 31-257): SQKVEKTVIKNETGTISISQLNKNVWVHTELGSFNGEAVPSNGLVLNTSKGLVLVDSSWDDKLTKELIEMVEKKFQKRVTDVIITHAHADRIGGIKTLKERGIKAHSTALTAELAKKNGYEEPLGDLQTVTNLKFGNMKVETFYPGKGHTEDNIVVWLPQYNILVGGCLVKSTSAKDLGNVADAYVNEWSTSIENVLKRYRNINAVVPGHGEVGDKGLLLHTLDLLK
T3 sequence (Q79MP6 19-246 limits assumed): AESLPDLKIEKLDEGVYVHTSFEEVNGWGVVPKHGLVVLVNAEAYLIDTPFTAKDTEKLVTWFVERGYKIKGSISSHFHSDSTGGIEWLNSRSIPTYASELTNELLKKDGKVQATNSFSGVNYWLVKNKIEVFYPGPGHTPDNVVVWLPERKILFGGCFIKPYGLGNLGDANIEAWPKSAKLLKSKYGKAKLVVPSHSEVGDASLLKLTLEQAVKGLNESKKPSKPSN

| SMILES | Ki [1, 5] [µM] | Ki [2] [µM] | Ki [1] [µM] | Ki [3] [µM] | mode of inhibition of the A. hydrophila enzyme [4] | Ki [4] [µM] | Ki [1, 6] [µM] | Ki ([2]; read-out: Ki (inhibition constant), competitive inhibition, 30 μm nitrocefin, 30° C., 30 mM sodium cacodylate pH 6.5, 0.1 mM ZnCl2) [µM] |
| --- | --- | --- | --- | --- | --- | --- | --- | --- |
| O=C(CC(=O)C(F)(F)F)c1ccccc1 [Compound 1, reference compound] | 300 |  |  |  |  |  |  |  |
| O=C(COc1ccccc1)N[C@H](Cc1ccccc1)C(=O)C(F)(F)F [Compound 2] | 1000 |  |  |  |  |  |  |  |
| O=C(COc1ccccc1)N[C@@H](Cc1ccccc1)C(=O)C(F)(F)F [Compound 3] |  | 15 | 500 | 530 | inactivators | 6 |  |  |
| O=C(COc1ccccc1)N[C@@H](Cc1ccccc1)[C@H](O)C(F)(F)F [Compound 4] |  |  |  | 900 | inactivators | 19 | 1000 |  |
| O=C(COc1ccccc1)N[C@H](Cc1ccccc1)[C@H](O)C(F)(F)F [Compound 5] |  |  |  | 60 | inactivators | 20 | 30 |  |
| C[C@H](NC(=O)COc1ccccc1)C(=O)C(F)(F)F [Compound 6] |  | 1.5 | 30 | 300 | inactivators | 44 |  |  |
| C[C@@H](NC(=O)COc1ccccc1)C(=O)C(F)(F)F [Compound 7] |  | 3 | 700 | 500 | inactivators | 11 |  |  |
| C[C@H](NC(=O)COc1ccccc1)[C@H](O)C(F)(F)F [Compound 8] |  |  |  | 400 |  |  | 300 |  |
| C[C@@H](NC(=O)COc1ccccc1)[C@H](O)C(F)(F)F [Compound 9] |  |  |  | 400 | inactivators | 217 | 700 | 35 |

Source: patent US6043278A, “Perfluoralkyl substituted metallo-beta-lactamase inhibitors” (Isis Innovation Limited, priority 1995, dated 2000)
